Structures are written as SMILES. pEC50, pKi: −log10 of the molar value.

Test [1] has as its system IL-12 induced pSTAT4 (Tyk2-pSTAT4). Briefly: IL-12 Induced pSTAT4 in human PBMC. Particulars: IL-12 1.7 ng/mL. In kind it is cell-based. How it is done: IL-12 Induced pSTAT4 in human PBMC. Human PBMC are isolated from buffy coat and are stored frozen for assays as needed. Cells for assay are thawed and resuspended in complete media containing serum, then cells are diluted to 1.67 E6 cells/ml so that 120 μl per well is 200,000 cells. 15 μl of compound or DMSO is added to the well at the desired concentrations and incubated at 1 hr at 37 C. 15 μl of stimulus (final concentration of 1.7 ng/mL IL-12) is added for 30 minutes prior to pSTAT4 and total STAT4 analysis using cell lysates prepared and analyzed by MSD reagents as per manufacturer protocol. The final DMSO concentration of compound in the assay is 0.1%.
(§1) The compound numbers correspond to the compound numbers in Table 1. Compounds having an activity designated as “A” provided an EC50≤2 μM; compounds having an activity designated as “B” provided a EC50 of 2-20 μM, and compounds having an activity designated as “C” provided an EC50>20 μM.

Test [2] deals with GM-CSF induced pSTAT5 (JAK2-pSTAT5). In words: GM-CSF Induced pSTAT5 in human PBMC. It counts as cell-based. The following applies: GM-CSF 5 ng/mL. How it is done:
GM-CSF Induced pSTAT5 in human PBMC. Cells are prepared for analysis as in the above procedure and 15 μl of GM-CSF (final concentration 5 ng/mL) is added for 20 minutes prior to pSTAT5 and total STAT5 analysis using cell lysates prepared and analyzed by MSD reagents as per manufacturer protocol. The final DMSO concentration of compound in the assay is 0.1%.
as §1

The next test deals with TYK2 (Homo sapiens (Human), UniProt P29597). Briefly: Tyk2 activity inhibition assay (radioactive kinase / Caliper assay). In kind it is biochemical. How it is done:
(§2) Peptide substrate, [KKSRGDYMTMQIG], (20 μM) is prepared in reaction buffer (20 mM Hepes pH 7.5, 10 mM MgCl2, 1 mM EGTA, 0.02% Brij35, 0.02 mg/mL BSA, 0.1 mM […], 2 mM DTT, 1% DMSO. TYK2 (Invitrogen) kinase is added, followed by compounds in DMSO. 33PATP is added to initiate the reaction in ATP at 10 μM. Kinase reaction is incubated for 120 min at room temp and reactions are spotted onto P81 ion exchange paper (Whatman #3698-915), and then washed extensively in 0.75% phosphoric acid, prior to reading the radioactivity counts. For JAK2 (Invitrogen) kinase assay the peptide substrate poly[Glu:Tyr] (4:1), 0.2 mg/ml is used, in the reaction carried out the same as for TYK2.
(§3) The caliper machine employs an off chip mobility shift assay to detect phosphorylated peptide substrates from kinase assays, using microfluidics technology. The assays are carried out at ATP concentration equivalent to the ATP Km, and at 1 mM ATP. Compounds are serially diluted in DMSO then further diluted in assay buffer (25 mM HEPES, pH 7.5, 0.01% Brij-35, 0.01% Triton, 0.5 mM EGTA). 5 ul of diluted compound was added into wells first, then 10 ul of enzyme mix was added into wells, followed by 10 uL of substrate mix (peptide and ATP in 10 mM MgCl2) to start reaction. Reaction was incubated at 28° C. for 25 min and then added 25 ul stop buffer (100 mM HEPES, 0.015% Brij-35, 50 mM EDTA), followed by reading with Caliper. JAK2 at 1 nM final concentration and TYK2 at 9.75 nM are from Carna, and substrates used are ATP at 20 and 16 uM, respectively. JAK2 assay uses peptide 22 and TYK2 uses peptide 30 (Caliper), each at 3 uM.
(§4) The compound numbers correspond to the compound numbers in Table 1. Compounds having an activity designated as “A” provided an Ki≤0.01 μM; compounds having an activity designated as “B” provided an Ki of 0.01-0.1 μM; compounds having an activity designated as “C” provided an Ki of 0.1-1.0 μM; and compounds having an activity designated as “D” provided an Ki≥1.0 μM.

The next test deals with JAK2 (Homo sapiens (Human), UniProt O60674). In words: JAK2 activity inhibition assay (radioactive kinase / Caliper assay). In kind it is biochemical. How it is done: as §2, §3, §4
Chain of JAK2 (O60674 whole entry): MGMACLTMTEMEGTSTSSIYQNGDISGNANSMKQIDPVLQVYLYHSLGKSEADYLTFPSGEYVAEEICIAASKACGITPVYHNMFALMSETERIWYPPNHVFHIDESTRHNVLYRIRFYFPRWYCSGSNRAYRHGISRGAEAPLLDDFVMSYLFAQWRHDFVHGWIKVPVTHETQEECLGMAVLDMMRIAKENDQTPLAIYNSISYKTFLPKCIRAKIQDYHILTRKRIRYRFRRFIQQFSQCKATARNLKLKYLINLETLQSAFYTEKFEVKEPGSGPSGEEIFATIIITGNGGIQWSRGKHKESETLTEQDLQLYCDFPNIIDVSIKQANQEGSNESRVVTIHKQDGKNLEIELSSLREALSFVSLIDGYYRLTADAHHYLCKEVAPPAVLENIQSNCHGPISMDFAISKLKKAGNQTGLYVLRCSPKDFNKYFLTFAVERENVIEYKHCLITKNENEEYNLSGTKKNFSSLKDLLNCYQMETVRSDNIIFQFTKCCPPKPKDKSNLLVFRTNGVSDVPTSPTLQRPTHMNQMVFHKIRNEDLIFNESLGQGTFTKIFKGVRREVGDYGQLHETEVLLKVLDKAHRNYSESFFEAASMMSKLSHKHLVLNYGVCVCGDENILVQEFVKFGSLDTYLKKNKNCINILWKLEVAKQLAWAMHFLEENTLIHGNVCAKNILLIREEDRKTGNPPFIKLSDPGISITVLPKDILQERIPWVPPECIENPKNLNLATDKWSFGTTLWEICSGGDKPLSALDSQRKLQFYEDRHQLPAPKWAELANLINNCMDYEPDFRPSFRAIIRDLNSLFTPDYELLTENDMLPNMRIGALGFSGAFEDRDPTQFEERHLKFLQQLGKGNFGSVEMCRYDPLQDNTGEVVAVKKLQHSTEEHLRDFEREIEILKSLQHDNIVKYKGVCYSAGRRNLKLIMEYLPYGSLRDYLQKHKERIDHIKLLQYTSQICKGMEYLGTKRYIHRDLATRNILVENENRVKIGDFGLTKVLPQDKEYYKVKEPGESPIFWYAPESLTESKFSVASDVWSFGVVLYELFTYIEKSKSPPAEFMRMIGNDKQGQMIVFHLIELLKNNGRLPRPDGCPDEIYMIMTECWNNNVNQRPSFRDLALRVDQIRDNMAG

Chain of TYK2 (P29597 whole entry): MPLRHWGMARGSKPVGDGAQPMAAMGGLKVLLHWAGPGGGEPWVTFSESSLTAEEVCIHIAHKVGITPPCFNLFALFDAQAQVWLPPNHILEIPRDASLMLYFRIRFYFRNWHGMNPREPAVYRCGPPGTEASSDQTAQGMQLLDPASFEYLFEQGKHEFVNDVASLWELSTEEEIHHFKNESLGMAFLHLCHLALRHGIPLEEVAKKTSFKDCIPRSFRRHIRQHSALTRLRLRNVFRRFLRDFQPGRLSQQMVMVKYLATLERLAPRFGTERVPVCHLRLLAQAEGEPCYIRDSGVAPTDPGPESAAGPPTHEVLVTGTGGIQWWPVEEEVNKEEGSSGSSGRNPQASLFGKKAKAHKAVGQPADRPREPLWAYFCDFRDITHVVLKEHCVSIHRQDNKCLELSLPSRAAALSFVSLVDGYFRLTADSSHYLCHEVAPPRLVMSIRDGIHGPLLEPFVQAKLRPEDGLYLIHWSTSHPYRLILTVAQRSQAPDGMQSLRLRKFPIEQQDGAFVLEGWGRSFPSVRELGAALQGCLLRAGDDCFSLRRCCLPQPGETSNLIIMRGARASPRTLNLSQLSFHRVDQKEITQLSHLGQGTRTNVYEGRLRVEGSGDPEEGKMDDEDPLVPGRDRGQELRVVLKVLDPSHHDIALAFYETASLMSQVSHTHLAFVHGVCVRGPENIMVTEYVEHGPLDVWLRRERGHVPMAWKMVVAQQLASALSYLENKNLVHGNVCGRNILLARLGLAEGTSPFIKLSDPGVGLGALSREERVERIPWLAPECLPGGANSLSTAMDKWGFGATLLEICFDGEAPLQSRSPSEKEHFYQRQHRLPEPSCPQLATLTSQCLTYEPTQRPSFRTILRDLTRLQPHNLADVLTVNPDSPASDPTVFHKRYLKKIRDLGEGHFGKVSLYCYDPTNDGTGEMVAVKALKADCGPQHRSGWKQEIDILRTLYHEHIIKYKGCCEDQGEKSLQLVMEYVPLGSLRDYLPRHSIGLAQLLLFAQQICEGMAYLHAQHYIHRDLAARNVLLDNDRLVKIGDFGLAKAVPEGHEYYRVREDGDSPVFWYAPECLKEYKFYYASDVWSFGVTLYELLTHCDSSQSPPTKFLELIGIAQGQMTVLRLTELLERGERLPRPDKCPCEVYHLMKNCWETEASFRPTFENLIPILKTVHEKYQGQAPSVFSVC

Consider `O=C1NCc2nc(-c3c(F)cccc3F)cc(Nc3cc4c(cn3)CCN4)c21` [Compound I-17, 2-(2,6-difluorophenyl)-4-((2,3-dihydro-1H-pyrrolo[3,2-c]pyridin-6-yl)amino)-6,7-dihydro-5H-pyrrolo[3,4-b]pyridin-5-one], for which the results for the pEC50 in test [1] and in test [2] were at least 5.70 and 4.70 to 5.70, respectively. For the same compound, the pKi (as a rule, the Ki on a negative log10 scale, so that one unit is a factor of ten) on TYK2 is at least 8.00; on JAK2 it was 7.00 to 8.00.
On to `CCNC(=O)[C@@](C)(O)c1ccc(Nc2nc(-c3c(F)cccc3F)nc3c2C(=O)NC3)cc1` [Compound I-15, (S)-2-(4-((2-(2,6-difluorophenyl)-5-oxo-6,7-dihydro-5H-pyrrolo[3,4-d]pyrimidin-4-yl)amino)phenyl)-N-ethyl-2-hydroxypropanamide], for which the pEC50 (commonly the EC50 on a negative log10 scale, so that one unit is a factor of ten) in test [1] is at least 5.70; in test [2], 4.70 to 5.70. Further, the pKi is at least 8.00 at TYK2 and 7.00 to 8.00 on JAK2.
Take `CC1(C)COc2cc(Nc3cc(-c4c(F)cccc4F)nc4c3C(=O)NC4)ccc21` [Compound I-70, 2-(2,6-difluorophenyl)-4-((3,3-dimethyl-2,3-dihydrobenzofuran-6-yl)amino)-6,7-dihydro-5H-pyrrolo[3,4-b]pyridin-5-one]: the figures for the negative-log EC50 (pEC50) in test [1] and in test [2] were at least 5.70 and under 4.70, respectively. The values for the negative-log Ki (pKi) at TYK2 and at JAK2 were at least 8.00 and 6.00 to 7.00, respectively.
On to `C[C@](O)(c1ccc(Nc2nc(-c3c(F)cccc3F)nc3c2C(=O)NC3)cc1)C(F)(F)F` [Compound I-34, (S)-2-(2,6-difluorophenyl)-4-((4-(1,1,1-trifluoro-2-hydroxy-propan-2-yl)phenyl)amino)-6,7-dihydro-5H-pyrrolo[3,4-d]pyrimidin-5-one], for which the negative-log EC50 (pEC50) was at least 5.70 in test [1] and 4.70 to 5.70 in test [2]. Also, the negative logarithm of the Ki (pKi) at JAK2 was 7.00 to 8.00.
`CC1(C)Cc2ccc(Nc3nc(-c4c(F)cccc4F)nc4c3C(=O)NC4)cc2N1` [Compound I-3, 2-(2,6-difluorophenyl)-4-((2,2-dimethylindolin-6-yl)amino)-6,7-dihydro-5H-pyrrolo[3,4-d]pyrimidin-5-one]: the pKi on TYK2 was at least 8.00; at JAK2, 6.00 to 7.00.
Taken in the same sequence, the figures for `O=C1NCc2nc(-c3c(F)cccc3F)cc(Nc3ccc4c(c3)OC(F)(F)O4)c21` [Compound I-69, 4-((2,2-difluorobenzo[d][1,3]dioxol-5-yl)amino)-2-(2,6-difluoro-phenyl)-6,7-dihydro-5H-pyrrolo[3,4-b]pyridin-5-one] were 7.00 to 8.00 and at most 6.00.
For the compound `C[C@@](O)(C(=O)O)c1ccc(Nc2nc(-c3c(F)cccc3F)nc3c2C(=O)NC3)cc1` [Compound I-7, (S)-2-(4-((2-(2,6-difluorophenyl)-5-oxo-6,7-dihydro-5H-pyrrolo[3,4-d]pyrimidin-4-yl)amino)phenyl)-2-hydroxypropanoic acid], the pKi is at least 8.00 at TYK2 and 6.00 to 7.00 on JAK2.
The matching figures for `O=C1NCc2nc(-c3c(F)cccc3F)nc(Nc3ccc(C(O)C(F)(F)F)cc3)c21` (stereo not drawn) [Compound I-29, 2-(2,6-difluorophenyl)-4-((4-(2,2,2-trifluoro-1-hydroxy-ethyl)phenyl)amino)-6,7-dihydro-5H-pyrrolo[3,4-d]pyrimidin-5-one]: at least 8.00 and 6.00 to 7.00.
The matching figures for `CC(N)(C(=O)O)c1ccc(Nc2nc(-c3c(F)cccc3F)nc3c2C(=O)NC3)cc1` (stereo not drawn) [Compound I-32, 2-amino-2-(4-((2-(2,6-difluorophenyl)-5-oxo-6,7-dihydro-5H-pyrrolo[3,4-d]pyrimidin-4-yl)amino)phenyl)propanoic acid]: at least 8.00 and at most 6.00.
The matching figures for `CCNC(=O)C(C)(N)c1ccc(Nc2nc(-c3c(F)cccc3F)nc3c2C(=O)NC3)cc1` (stereo not drawn) [Compound I-9, 2-amino-2-(4-((2-(2,6-difluorophenyl)-5-oxo-6,7-dihydro-5H-pyrrolo[3,4-d]pyrimidin-4-yl)amino)phenyl)-N-ethylpropanamide]: 7.00 to 8.00 and 7.00 to 8.00.
Regarding `CC(O)(c1ccc(Nc2cc(-c3c(F)cccc3F)nc3c2C(=O)NC3)cc1)C(F)(F)F` (stereo not drawn) [Compound I-42, 2-(2,6-difluorophenyl)-4-((4-(1,1,1-trifluoro-2-hydroxypropan-2-yl)phenyl)amino)-6,7-dihydro-5H-pyrrolo[3,4-b]pyridin-5-one], the pKi at TYK2 was at least 8.00; on JAK2 it was 7.00 to 8.00.
The matching figures for `O=C1NCc2nc(-c3c(F)cccc3F)cc(Nc3ccc4c(c3)OC3(CC3)C4=O)c21` [Compound I-77, 2-(2,6-difluorophenyl)-4-((3-oxo-3H-spiro[benzofuran-2,1′-cyclopropan]-6-yl)amino)-6,7-dihydro-5H-pyrrolo[3,4-b]pyridin-5-one]: at least 8.00 and 7.00 to 8.00.
Taken in the same sequence, the figures for `C[C@](N)(C(=O)O)c1ccc(Nc2nc(-c3c(F)cccc3F)nc3c2C(=O)NC3)cc1` [Compound I-46, (R)-2-amino-2-(4-((2-(2,6-difluorophenyl)-5-oxo-6,7-dihydro-5H-pyrrolo[3,4-d]pyrimidin-4-yl)amino)phenyl)propanoic acid hydro-chloride] were 7.00 to 8.00 and 6.00 to 7.00.
The matching figures for `O=C1NCc2nc(-c3c(F)cccc3F)cc(Nc3ccc(N4CCC5(CCCCO5)CC4)cn3)c21` [Compound I-53, 4-((5-(1-oxa-9-azaspiro[5.5]undecan-9-yl)pyridin-2-yl)amino)-2-(2,6-difluorophenyl)-6,7-dihydro-5H-pyrrolo[3,4-b]pyridin-5-one]: at least 8.00 and 7.00 to 8.00.
As for `O=C1NCc2nc(-c3c(F)cccc3F)cc(Nc3ccc4c(c3)CS(=O)(=O)C4)c21` [Compound I-86, 2-(2,6-difluorophenyl)-4-((2,2-dioxido-1,3-dihydro-benzo[c]thio-phen-5-yl)amino)-6,7-dihydro-5H-pyrrolo[3,4-b]pyridin-5-one], the figures for the pKi at TYK2 and on JAK2 were at least 8.00 and 7.00 to 8.00, respectively.
The matching figures for `COc1ccc(CNc2nc(-c3c(F)cccc3F)nc3c2C(=O)NC3)cc1` [Compound I-13, 2-(2,6-difluorophenyl)-4-((4-methoxybenzyl)-amino)-6,7-dihydro-5H-pyrrolo[3,4-d]pyrimidin-5-one]: 7.00 to 8.00 and 6.00 to 7.00.
The matching figures for `C[C@](O)(C(=O)O)c1ccc(Nc2nc(-c3c(F)cccc3F)nc3c2C(=O)NC3)cc1` [Compound I-8, (R)-2-(4-((2-(2,6-difluorophenyl)-5-oxo-6,7-dihydro-5H-pyrrolo[3,4-d]pyrimidin-4-yl)amino)phenyl)-2-hydroxypropanoic acid]: at least 8.00 and 6.00 to 7.00.
`CCNC(=O)[C@](C)(O)c1ccc(Nc2nc(-c3c(F)cccc3F)nc3c2C(=O)NC3)cc1` [Compound I-16, (R)-2-(4-((2-(2,6-difluorophenyl)-5-oxo-6,7-dihydro-5H-pyrrolo[3,4-d]pyrimidin-4-yl)amino)phenyl)-N-ethyl-2-hydroxypropanamide]: the pKi was at least 8.00 on TYK2 and 6.00 to 7.00 at JAK2.
Taken in the same sequence, the figures for `CC1(C)COc2cc(Nc3nc(-c4c(F)cccc4F)nc4c3C(=O)NC4)ccc21` [Compound I-23, 2-(2,6-difluorophenyl)-4-((3,3-dimethyl-2,3-dihydrobenzofuran-6-yl)amino)-6,7-dihydro-5H-pyrrolo[3,4-d]pyrimidin-5-one] were at least 8.00 and 6.00 to 7.00.

Source of the values: patent publication US10968236B2, “TYK2 inhibitors and uses thereof” (Nimbus Lakshmi, Inc., priority 2015, dated 2021).
